Experimental findings from patent US20110076318A1, “RETINOID-CONTAINING SUSTAINED RELEASE INTRAOCULAR IMPLANTS AND RELATED MATTERS” (Allergan, Inc., priority 2004, published 2011) are described below.

≈ marks a conversion by molar mass, not a printed value. Where two headings read alike, the source gives them in different places.

A short description of data set [1]: Plasma concentrations after topical and oral dosing of tazarotene. The data set is classed as in vivo, patients. Conditions: for Cmax: human, po, read-out: TAZAROTENE Cmax. On the procedure: […] For the most part tazarotene is not observed in the plasma after topical or oral administration. Facile hydrolysis by pre-systemic metabolism rapidly generates the free acid. […] It is important to note that these are plasma concentrations and the eye plasma distribution ratio is 0.02. Over 90% of all patients in the phase 3 clinical trials had concentrations of the parent compound, tazarotene, <1 ng/mL with the highest being 6 ng/mL.
Oral delivery of 1.1 mg and 6 mg multiple doses led to 28.9 ng/mL and 227 ng/ml peak levels with a 2.56 ng/mL trough. This corresponds to a maximum possible 4 ng/mL ocular level for the highest dose. FIG. 11 depicts the tissue distribution of tazarotenic acid. The eyes show a 2% tissue/plasma ration in the rat. It should be noted that tazarotenic acid is 99% protein bound and distribution is limited to unbound drug.

Data set [2] in a line: Solubility of tazarotene. The data set is classed as physicochemical. The protocol: This was due to the extremely low solubility of Tazarotene in 0.9% saline, which was determined to be less than 1 μg/mL. Therefore, it was difficult to see any differences in the release profiles of different formulations. Work began to search for a release medium that would differentiate the release profiles of all formulations.

The subject of data set [3] is photoreceptors. The experiment in a line: Rhodopsin mutant transgenic rat models of retinal degeneration. The data set is classed as in vivo, Transgenic S334ter rats. The note with it: i.p., S334ter line 3 and line 4. The protocol:
The objective of this study was to determine the efficacy of various retinoids in preventing retinal damage or improving retinal survival in rhodopsin mutant transgenic rat models of retinal degeneration. The overall goal of the research was to investigate potential photoreceptor survival in mutant rhodopsin transgenic rats using RAR α, RAR β γ, and RXR retinoid agonists.
The experimental design was straightforward. A compound was injected daily to line 3 and every two days for line 4 animals (i.p.) for a given period and animals were sacrificed at the end by CO2 overdose followed immediately by vascular perfusion of mixed aldehydes. Two litters of rats were used:
1. Transgenic S334ter-3 rats. Line 3 bears a rhodopsin mutation S334ter. […] Injection of a compound will be given daily from PD 6 (post-delivery day 6) to PD 20.
2. Transgenic S334ter-4 rats. Line 4 bears a rhodopsin mutation S334ter. Animals of this line experience a 80% loss of photoreceptors by 60 days after birth. The ONL is reduced to one row of nuclei. Injection of a compound will be given every other day from PD 25 to PD 60.
For the line 3 animals, treatment started at PD 6 and the endpoint was PD 20. For the line 4, injection began at PD 25 and ended at PD60 when eyes were harvested. Eyes were embedded in an Epon/Araldite mixture for sectioning at 1 μm thickness along the vertical meridian. Protection of photoreceptors was be evaluated by counting the rows of nuclei in the outer nuclear layer.
The outcome was a measure of retinal outer layer thickness, and cytology over an 8 week period. Compounds included the retinoid agonists tazarotene (RAR β γ), AGN 195183 (RAR α) and AGN 194204 (RXR). […] This is a fairly harsh model and as such the modest improvement by tazarotene is quite significant.

Data set [4] is described as follows: Intraocular pharmacokinetics after single intravitreal injection of Tazarotene. The data set is classed as in vivo, female New Zealand White rabbits. The note with it: rabbit; for concentration at 2 hr / concentration at 24 hr / half-life: female, New Zealand White; for concentration at 2 hr / concentration at 24 hr: other: intravitreal injection; for concentration at 2 hr: 2 hr post dose; for concentration at 24 hr: 24 hr post dose; for half-life: topical or ocular. On the procedure:
The intraocular pharmacokinetics of Tazarotene was assessed in female New Zealand White rabbits following a single intravitreal injection. The rabbits were dosed with bilateral intravitreal injections of Tazarotene (1250 ng in 50 μL). At 0.5, 1, 2, 4, 8, 12, and 24 hr post dose, animals were sacrificed and the aqueous humor, vitreous humor, and retina samples were analyzed. […] The Tazarotene concentration in the retina was close to its vitreal concentration at all time points, declining from 859±131 ng/g at 2 hr post dose to 93.1±28.9 ng/g by 24 hr post dose. […] It was shown that Tazarotene has a relatively long intravitreal half-life and that the retinal concentration parallel the vitreous when given as a neat injection. However, despite a very low solubility the clearance of Tazarotene from the retina is fast enough to require sustained release for extended duration of action.

The test system of data set [5] is PVR induced by human RPE cells. The data set is described as follows: PVR model with retinoid implants, Fastenberg scale. The format is in vivo. The source says:
PLA and PLGA implants 1.5 mm in diameter and 3 mm in length were fabricated by extrusion of the polymer drug blend. Tazarotenic acid (the free acid of Tazarotene) Tazarotene and 13-cis-retinoic acid were loaded into the implants at 10% concentrations. Briefly, pigmented rabbits were vitrectomized followed by intravitreal injection of 500,000 human RPE cells. After injection of the RPE cells the retinoid implants were placed into the vitreous and anchored to the sclera with the suture used to close the sclerotomy.
The eyes were examined weekly for 4 weeks. Severity of PVR was graded based on the Fastenberg scale. At 4 weeks gross pathology and limited histopathology were conducted.

The nature of data set [6]: Measured lipophilicity of tazarotene. The data set is classed as physicochemical.
Data set [7] has as its system retinal function and structure. The experiment in a line: Blue light retinal degeneration model. The data set is classed as in vivo, Sprague dawley rats. Conditions: daily oral doses for five days before 12000 lux blue light, eight hours. On the procedure:
AGN 194310, AGN 194204, tazarotene and AGN 199852 were evaluated in the blue light retinal degeneration model. Sprague dawley rats were pretreated for five days with daily oral doses of the retinoids. The rats were then exposed to high intensity light, 12000 lux blue fluorescent, for eight hours. Five days post exposure the retinal function was assessed by full flash ERG and structure by outer nuclear layer thickness.

[8] abbreviates: retina, 1250 ng, read-out: Tazarotene concentration in the retina.
Setting [9] is: vitreous humor, 1250 ng intravitreal, read-out: Tazarotene concentration in the vitreous humor.

With `CCOC(=O)c1ccc(C#Cc2ccc3c(c2)C(C)(C)CCS3)nc1` [Tazarotene, Ethyl 6-[(4,4-dimethylthiochroman-6-yl)ethynyl]nicotinate], the Cmax in data set [1] (plasma, 1.1 mg/Day, plasma, Oral 1.1 mg/Day, in 95%) is < 0.1 ng/mL; in data set [1] (plasma, 3 mg/Day, plasma, Oral 3.0 mg/Day), < 0.1 ng/mL; in data set [1] (plasma, 6 mg/Day, plasma, Oral 6.0 mg/Day), < 0.1 ng/mL. The “highest plasma concentration of tazarotene in phase 3 clinical trials” value in data set [1] (in vivo) turned out to be 6 ng/mL. The “plasma concentration of tazarotene in phase 3 clinical trials” value in data set [1] (over 90% of all patients) is on record as < 1 ng/mL. Also, in data set [1] (plasma, Topical Gel 0.1%, for >90%), the “TAZAROTENE Cmax” value is listed as “BLQ for >90%”. Also, the solubility in data set [2] (0.9% saline, saline or isotonic, read-out: solubility in 0.9% saline) was < 1 µg/mL; in data set [2] (water, read-out: solubility in water), 1 µg/mL (≈ 2.85 µM). The “protection of photoreceptors (outer nuclear layer)” value in data set [3] is “only compound to show efficacy”. In addition, the values for the concentration at 2 hr in data set [4] (setting [8]) and in data set [4] (setting [9]) were 859 ± 131 ng/g and 578 ± 77 ng/g, respectively. The results for the concentration at 24 hr in data set [4] (setting [8]) and in data set [4] (setting [9]) were 93.1 ± 28.9 ng/g and 115 ± 33 ng/g, respectively. The half-life is 7.63 h in data set [4] (retina, 1250 ng, read-out: mean t1/2 of elimination from the retina (converted)) and 9.22 h in data set [4] (vitreous humor, 1250 ng, read-out: mean half-life (t1/2) in vitreous humor (converted)). Besides, in data set [4] (in vivo), the “mean vitreal clearance (Cl)” value is 0.123 mL/h. Besides, in data set [4] (in vivo), the vitreal clearance was 2.95 mL/day. In data set [5] (at 4 weeks), the “safety by gross pathology and limited histopathology” value is given as “good safety profile”. In data set [5] (at 28 days, 10% loaded PLA/PLGA implants, intravitreal), the “eyes progressed to traction retinal detachment” value is listed as 12%. Besides, the logP in data set [6] stood at 4.3. Also, the logD in data set [6] (pH 7.4, value marked measured in Table 3, read-out: log D pH 7.4 (measured)) was found to be 4.3. Besides, the “protection of retinal function (ERG) and structure (outer nuclear layer thickness)” value in data set [7] was “significantly protect both retinal function and structure”.
